Where two headings read alike, the source gives them in different places.
Tests used:
MOLM14 cells = experiment: Proliferation assay, spheroid-like growth, MOLM14 (MLL-AF9 rearranged); assay type: cell-based, human; details: 8 days, confluence as measure of spheroid size, read-out: spheroid assay_OneTime MOLM14 IC50
Procedure, shortened: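 IC50 derived from a variable-slope dose-response fit of percent confluence change, with DMSO-treated cells as high control and high-dose reference compound as low control. Spheroid-like growth of MOLM14 (200 cells/well) or KO-52 (300 cells/well) in ultra-low attachment plates, 8 days, 37° C, 5% CO2, DMSO normalised to 0.3%, imaged at day 8.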

[1] = target: T1, menin/MLL (terbium chelate-labeled menin, FITC-MBM1 peptide) (Homo sapiens, UniProt O00255, T541A); experiment: Menin/MLL homogenous time-resolved fluorescence (HTRF) assay; assay type: binding; details: 30 min incubation
T1 construct: Menin (a.a 1-610-6xhis tag)
T1 sequence (O00255 with tags, fused parts or gaps T541A): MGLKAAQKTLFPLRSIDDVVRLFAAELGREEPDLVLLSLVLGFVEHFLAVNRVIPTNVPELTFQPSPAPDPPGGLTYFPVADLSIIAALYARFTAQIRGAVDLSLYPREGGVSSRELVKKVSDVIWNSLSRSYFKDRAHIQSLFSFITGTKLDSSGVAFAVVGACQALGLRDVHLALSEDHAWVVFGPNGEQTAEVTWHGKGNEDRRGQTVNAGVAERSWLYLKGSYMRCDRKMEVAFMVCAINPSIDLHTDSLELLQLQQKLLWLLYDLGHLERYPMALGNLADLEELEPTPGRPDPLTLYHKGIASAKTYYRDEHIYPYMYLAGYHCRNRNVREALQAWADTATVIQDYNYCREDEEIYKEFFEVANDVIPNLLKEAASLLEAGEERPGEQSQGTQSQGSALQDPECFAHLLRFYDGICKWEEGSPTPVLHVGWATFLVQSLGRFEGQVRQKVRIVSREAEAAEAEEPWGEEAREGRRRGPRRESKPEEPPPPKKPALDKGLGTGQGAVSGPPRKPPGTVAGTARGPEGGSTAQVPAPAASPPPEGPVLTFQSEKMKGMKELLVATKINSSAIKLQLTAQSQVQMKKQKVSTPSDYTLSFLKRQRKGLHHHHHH
Procedure, shortened: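 Compounds were preincubated 30 min at ambient temperature with 200 pM terbium-labeled menin (aa 1-610, His-tagged) in Tris pH 7.5 buffer with DTT and Pluronic, then 75 nM FITC-MBM1 peptide added for 15 min. HTRF ratio 520/490 nm gave % inhibition; IC50 from four-parameter fit, floor 0.1 nM.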

KO-52 cells = experiment: Proliferation assay, spheroid-like growth, KO-52 (MLL wildtype control cell line); assay type: cell-based, human; details: KO-52 control cells, 8 days, confluence as measure of spheroid size, read-out: spheroid assay_OneTime KO-52 IC50
Experimental: The anti-proliferative effect of menin/MLL protein/protein interaction inhibitor test compounds was assessed in human leukemia cell lines. The cell line MOLM14 harbors a MLL translocation and expresses the MLL fusion proteins MLL-AF9, respectively, as well as the wildtype protein from the second allele. […] KO-52 was used as a control cell line containing two MLL (KMT2A) wildtype alleles in order to exclude compounds that display general cytotoxic effects.
MOLM14 cells were cultured in RPMI-1640 (Sigma Aldrich) supplemented with 10% heat-inactivated fetal bovine serum (HyClone), 2 mM L-glutamine (Sigma Aldrich) and 50 μg/ml gentamycin (Gibco). KO-52 cell lines were propagated in alpha-MEM (Sigma Aldrich) supplemented with 20% heat-inactivated fetal bovine serum (HyClone), 2 mM L-glutamine (Sigma Aldrich) and 50 μg/ml gentamycin (Gibco).
In order to assess the anti-proliferative effects, 200 MOLM14 cells, or 300 KO-52 cells were seeded in 200 μl media per well in 96-well round bottom, ultra-low attachment plates (Costar, catalogue number 7007). Cell seeding numbers were chosen based on growth curves to ensure linear growth throughout the experiment. Test compounds were added at different concentrations and the DMSO content was normalized to 0.3%. Cells were incubated for 8 days at 37° C. and 5% CO2. Spheroid like growth was measured in real-time by live-cell imaging (IncuCyteZOOM, Essenbio, 4× objective) acquiring images at day 8. Confluence (%) as a measure of spheroid size was determined using an integrated analysis tool.
In order to determine the effect of the test compounds over time, the confluence in each well as a measure of spheroid size, was calculated. Confluence of the highest dose of a reference compound was used as baseline for the LC (Low control) and the confluence of DMSO treated cells was used as 0% cytotoxicity (High Control, HC).
Absolute IC50 values were calculated as percent change in confluence as follows:
LC=Low Control: cells treated with e.g. 1 μM of the cytotoxic agent staurosporin, or e.g. cells treated with a high concentration of an alternative reference compound
GraphPad Prism (version 7.00) was used to calculate the IC50. Dose-response equation was used for the plot of % Effect vs Log 10 compound concentration with a variable slope and fixing the maximum to 100% and the minimum to 0%.

Compound `CC(C)[C@H]([C@H]1C[C@@H](N2CC[C@@H](O)C23CC3)C1)N1CC2(CCN(c3ncnnc3Oc3ccc(F)cc3-c3cncnc3C3CC3)C2)C1` (single isomer, unassigned) [Compound 40] has an IC50 (MOLM14 cells; Homo sapiens, MOLM-14, 192 h) of 10 nM, an IC50 [1] of 0.2 nM and an IC50 (KO-52 cells; Homo sapiens, 192 h) of 500 nM.
With `CC(C)[C@H]([C@H]1C[C@@H](N2CC[C@H](O)C23CC3)C1)N1CC2(CCN(c3ncnnc3Oc3ccc(F)cc3-c3cncnc3C3CC3)C2)C1` (single isomer, unassigned) [Compound 41] the IC50 (MOLM14 cells; Homo sapiens, MOLM-14, 192 h) was 12 nM, the IC50 [1] was 0.2 nM and the IC50 (KO-52 cells; Homo sapiens, 192 h) was greater than 15000 nM.
`CC(C)[C@H]([C@H]1C[C@@H](N2C[C@H](O)C3(CC3)C2)C1)N1CC2(CCN(c3ncnnc3Oc3ccc(F)cc3-c3cncnc3C3CC3)C2)C1` (single isomer, unassigned) [Compound 45] gave an IC50 (MOLM14 cells; Homo sapiens, MOLM-14, 192 h) of less than 2 nM, an IC50 [1] of 0.2 nM and an IC50 (KO-52 cells; Homo sapiens, 192 h) of 6330 nM.
With `CC(C)[C@H]([C@H]1C[C@@H](N2C[C@@H](O)C3(CC3)C2)C1)N1CC2(CCN(c3ncnnc3Oc3ccc(F)cc3-c3cncnc3C3CC3)C2)C1` (single isomer, unassigned) [Compound 46] the IC50 (MOLM14 cells; Homo sapiens, MOLM-14, 192 h) was 2 nM, the IC50 [1] was 0.1 nM and the IC50 (KO-52 cells; Homo sapiens, 192 h) was 5930 nM.
Compound `CC(C)[C@H]([C@H]1C[C@@H](N2CC[C@@](C)(O)C2)C1)N1CC2(CCN(c3ncnnc3Oc3ccc(F)cc3-c3cncnc3C3CC3)C2)C1` (single isomer, unassigned) [Compound 47] has an IC50 (MOLM14 cells; Homo sapiens, MOLM-14, 192 h) of 3 nM, an IC50 [1] of 0.2 nM and an IC50 (KO-52 cells; Homo sapiens, 192 h) of 4360 nM.
Work on `CC(C)[C@H]([C@H]1C[C@@H](N2CCCCC2)C1)N1CC2(CCN(c3ncnnc3Oc3ccc(F)cc3-c3cncnc3C3CC3)C2)C1` (single isomer, unassigned) [Compound 48] yielded an IC50 (MOLM14 cells; Homo sapiens, MOLM-14, 192 h) of 4 nM, an IC50 [1] of 0.3 nM and an IC50 (KO-52 cells; Homo sapiens, 192 h) of 1060 nM.
Compound `CC(C)[C@H]([C@H]1C[C@H](N2CCCCC2)C1)N1CC2(CCN(c3ncnnc3Oc3ccc(F)cc3-c3cncnc3C3CC3)C2)C1` (single isomer, unassigned) [Compound 49] has an IC50 (MOLM14 cells; Homo sapiens, MOLM-14, 192 h) of 27 nM, an IC50 [1] of 0.6 nM and an IC50 (KO-52 cells; Homo sapiens, 192 h) of 2130 nM.
In the case of `CC(C)[C@H]([C@H]1C[C@@H](N2CCC[C@@H](C(=O)N(C)C)C2)C1)N1CC2(CCN(c3ncnnc3Oc3ccc(F)cc3-c3cncnc3C3CC3)C2)C1` (single isomer, unassigned) [Compound 50], the IC50 (MOLM14 cells; Homo sapiens, MOLM-14, 192 h) is reported as less than 2 nM, the IC50 [1] is reported as 0.1 nM and the IC50 (KO-52 cells; Homo sapiens, 192 h) is reported as greater than 15000 nM.
Compound `CC(C)[C@H]([C@H]1C[C@@H](N2CCC[C@H](C(=O)N(C)C)C2)C1)N1CC2(CCN(c3ncnnc3Oc3ccc(F)cc3-c3cncnc3C3CC3)C2)C1` (single isomer, unassigned) [Compound 51] has an IC50 (MOLM14 cells; Homo sapiens, MOLM-14, 192 h) of 14 nM, an IC50 [1] of 0.1 nM and an IC50 (KO-52 cells; Homo sapiens, 192 h) of 14400 nM.
`CC(C)[C@H]([C@H]1C[C@H](N2CCC[C@H](C(=O)N(C)C)C2)C1)N1CC2(CCN(c3ncnnc3Oc3ccc(F)cc3-c3cncnc3C3CC3)C2)C1` (single isomer, unassigned) [Compound 52] was tested, and the IC50 (MOLM14 cells; Homo sapiens, MOLM-14, 192 h) was 210 nM, the IC50 [1] was 0.4 nM and the IC50 (KO-52 cells; Homo sapiens, 192 h) was 14000 nM.
`CC(=O)N1CC2(CCN([C@H]3C[C@@H]([C@@H](C(C)C)N4CC5(CCN(c6ncnnc6Oc6ccc(F)cc6-c6cncnc6C6CC6)C5)C4)C3)C2)C1` (single isomer, unassigned) [Compound 53] showed an IC50 (MOLM14 cells; Homo sapiens, MOLM-14, 192 h) of 5 nM, an IC50 [1] of 0.2 nM and an IC50 (KO-52 cells; Homo sapiens, 192 h) of 9280 nM.
`CC(=O)N1CCC2C1CCN2[C@H]1C[C@@H]([C@@H](C(C)C)N2CC3(CCN(c4ncnnc4Oc4ccc(F)cc4-c4cncnc4C4CC4)C3)C2)C1` (single isomer, unassigned) [Compound 54] showed an IC50 (MOLM14 cells) of 28 nM, an IC50 [1] of 0.3 nM and an IC50 (KO-52 cells; Homo sapiens, 192 h) of 4960 nM.
Work on `CC(=O)N1CCC2C1CCN2[C@H]1C[C@@H]([C@@H](C(C)C)N2CC3(CCN(c4ncnnc4Oc4ccc(F)cc4-c4cncnc4C4CC4)C3)C2)C1` (single isomer, unassigned) [Compound 55] yielded an IC50 (MOLM14 cells) of 95 nM, an IC50 [1] of 0.5 nM and an IC50 (KO-52 cells) of 6430 nM.
Compound `CC(=O)N1CC2(CCCN2[C@H]2C[C@@H]([C@@H](C(C)C)N3CC4(CCN(c5ncnnc5Oc5ccc(F)cc5-c5cncnc5C5CC5)C4)C3)C2)C1` (single isomer, unassigned) [Compound 56] has an IC50 (MOLM14 cells; Homo sapiens, MOLM-14, 192 h) of 350 nM, an IC50 [1] of 0.4 nM and an IC50 (KO-52 cells; Homo sapiens, 192 h) greater than 15000 nM.
`CC(=O)N1CCC2CN([C@H]3C[C@@H]([C@@H](C(C)C)N4CC5(CCN(c6ncnnc6Oc6ccc(F)cc6-c6cncnc6C6CC6)C5)C4)C3)CC21` (single isomer, unassigned) [Compound 57] showed an IC50 (MOLM14 cells) of 8 nM, an IC50 [1] of 0.1 nM and an IC50 (KO-52 cells; Homo sapiens, 192 h) of 7540 nM.
Compound `CC(=O)N1CCC2CN([C@H]3C[C@@H]([C@@H](C(C)C)N4CC5(CCN(c6ncnnc6Oc6ccc(F)cc6-c6cncnc6C6CC6)C5)C4)C3)CC21` (single isomer, unassigned) [Compound 58] has an IC50 (MOLM14 cells) of 19 nM, an IC50 [1] of 0.1 nM and an IC50 (KO-52 cells) greater than 15000 nM.
`CC(=O)N1CC[C@@]12CCN([C@H]1C[C@@H]([C@@H](C(C)C)N3CC4(CCN(c5ncnnc5Oc5ccc(F)cc5-c5cncnc5C5CC5)C4)C3)C1)C2` (single isomer, unassigned) [Compound 59] showed an IC50 (MOLM14 cells; Homo sapiens, MOLM-14, 192 h) of 24 nM, an IC50 [1] of 0.1 nM and an IC50 (KO-52 cells; Homo sapiens, 192 h) of 5010 nM.
`CC(=O)N1CC[C@]12CCN([C@H]1C[C@@H]([C@@H](C(C)C)N3CC4(CCN(c5ncnnc5Oc5ccc(F)cc5-c5cncnc5C5CC5)C4)C3)C1)C2` (single isomer, unassigned) [Compound 60] gave an IC50 (MOLM14 cells; Homo sapiens, MOLM-14, 192 h) of 7 nM, an IC50 [1] of 0.2 nM and an IC50 (KO-52 cells; Homo sapiens, 192 h) of 3370 nM.
In the case of `CC(C)[C@H]([C@H]1C[C@@H](N2CCC(C)(C(=O)N(C)C)CC2)C1)N1CC2(CCN(c3ncnnc3Oc3ccc(F)cc3-c3cncnc3C3CC3)C2)C1` (single isomer, unassigned) [Compound 62], the IC50 (MOLM14 cells; Homo sapiens, MOLM-14, 192 h) is reported as 4 nM, the IC50 [1] is reported as 0.1 nM and the IC50 (KO-52 cells; Homo sapiens, 192 h) is reported as 6260 nM.
For `CC(=O)N1CC2CN([C@H]3C[C@@H]([C@@H](C(C)C)N4CC5(CCN(c6ncnnc6Oc6ccc(F)cc6-c6cncnc6C6CC6)C5)C4)C3)CC2C1` (single isomer, unassigned) [Compound 64], the IC50 (MOLM14 cells; Homo sapiens, MOLM-14, 192 h) was 2 nM, the IC50 [1] was 0.1 nM and the IC50 (KO-52 cells; Homo sapiens, 192 h) was greater than 15000 nM.
`CC(=O)N1CC2CN([C@H]3C[C@H]([C@@H](C(C)C)N4CC5(CCN(c6ncnnc6Oc6ccc(F)cc6-c6cncnc6C6CC6)C5)C4)C3)CC2C1` (single isomer, unassigned) [Compound 65] gave an IC50 (MOLM14 cells; Homo sapiens, MOLM-14, 192 h) of 130 nM, an IC50 [1] of 0.2 nM and an IC50 (KO-52 cells; Homo sapiens, 192 h) of 11800 nM.
`CC(C)[C@H]([C@H]1C[C@@H](N2CC[C@@]3(CCN(C)C3=O)C2)C1)N1CC2(CCN(c3ncnnc3Oc3ccc(F)cc3-c3cncnc3C3CC3)C2)C1` (single isomer, unassigned) [Compound 66] was tested, and the IC50 (MOLM14 cells; Homo sapiens, MOLM-14, 192 h) was 6 nM, the IC50 [1] was 0.1 nM and the IC50 (KO-52 cells; Homo sapiens, 192 h) was greater than 15000 nM.

From patent US20240417405A1, “Substituted Spiro Derivatives” (Janssen Pharmaceutica NV, priority 2021, published 2024)
